Experimental data as given in article PMC9712021 (Advances in Pharmacological and Pharmaceutical Sciences, 2022).

Tests used:
[1] = system: S. cerevisiae EG110 (Sod2∆); experiment: S. cerevisiae central disc test, oxidative damage, strain Sod2∆; type: cell-based, Saccharomyces cerevisiae
Source text: (§1) The central disc test was done according to the method presented by Islam et al.. Superoxide dismutase (CuZnSOD-Sod1) is a cytosolic enzyme that is faulty in strain EG118, whereas mitochondrial SOD is faulty in strain EG110 (MnSOD-Sod2). The strain EG133 has both Sod1 and Sod2 defects, while EG223 has a cytosolic catalase deficiency (Cat1). While EG103 is a competent strain that is identical to the wild-type (SODWT), EG is a dual isogenic strain for the Sod1 and Cat1 genes.

[2] = system: S. cerevisiae EG (Sod1∆Cat1∆); experiment: S. cerevisiae central disc test, oxidative damage, strain Sod1∆Cat1∆; type: cell-based, Saccharomyces cerevisiae
Source text: as §1

mouse erythrocytes = experiment: Hemolytic activity in mice erythrocytes; type: cell-based; details: 31.25–500 μg/mL
Procedure: (§2) This test was performed on adult Swiss albino mouse (Mus musculus) erythrocytes. The mouse was collected from the Central Animal House of the Federal University of Piaui, Brazil. It was allowed free access to standard food and water ad libitum and was kept under controlled lighting (12 h dark/light cycles) at 24 ± 2°C. Blood was collected from the retro-orbital plexus of the mouse (male, 24 gm body weight). Hemolytic activity in mouse erythrocytes was performed, according to Jamialahmadi et al..

[3] = Hemolytic activity in mice erythrocytes; type: cell-based, Mus musculus; details: male, Swiss albino, mouse, 37°C, 2 h
Procedure: as §2

[4] = system: S. cerevisiae EG103 (SODWT); experiment: S. cerevisiae central disc test, oxidative damage, strain SODWT; type: cell-based, Saccharomyces cerevisiae
Source text: as §1

[5] = system: S. cerevisiae strains (SODWT, Sod1Δ, Sod2Δ, Cat1Δ, Sod1/Sod2Δ, Cat1Δ/Sod1Δ); experiment: In vivo antioxidant (S. cerevisiae) test, all strains tested; type: cell-based, Saccharomyces cerevisiae
Source text: as §1

[6] = system: S. cerevisiae EG118 (Sod1∆); experiment: S. cerevisiae central disc test, oxidative damage, strain Sod1∆; type: cell-based, Saccharomyces cerevisiae
Source text: as §1

[7] = system: S. cerevisiae EG223 (Cat1∆); experiment: S. cerevisiae central disc test, oxidative damage, strain Cat1∆; type: cell-based, Saccharomyces cerevisiae
Source text: as §1

[8] = system: S. cerevisiae EG133 (Sod1∆Sod2∆); experiment: S. cerevisiae central disc test, oxidative damage, strain Sod1∆Sod2∆; type: cell-based, Saccharomyces cerevisiae
Source text: as §1

Artemia salina = Artemia salina bioassay (brine shrimp lethality bioassay)
Procedure: This test was carried out with a slight modification, as described by Amaral et al.. Briefly, shrimp cysts were incubated in a small aquarium containing a brine solution (50 mg of cysts and 300 mL of brine) for 48 h with direct lighting. […] […] In the negative (NC) and positive (PC) control groups, saline solution and potassium dichromate (K2Cr2O7) were added, respectively. The concentration range used in the case of the PC group was 31.25 to 500 μg/mL.

`CC(C)CCCC(C)CCO` (stereo not shown) [3,7-Dimethyl-1-octanol, 3,7-dimethyl-1-octanol] showed an oxidative damage ([1]; 0.9 μg/mL) of 1.50 ± 0.70, an oxidative damage ([1]; 1.8 μg/mL) of 2.00 ± 0.00 and an oxidative damage ([1]; 7.2 μg/mL) of 2.50 ± 0.70. For the same compound, the oxidative damage ([1]; 14.4 μg/mL) was 1.50 ± 0.70, the oxidative damage ([1]; 32 μg/mL) was 3.00 ± 0.00 and the oxidative damage ([1]; 64 μg/mL) was 1.00 ± 0.00. The oxidative damage ([1]; 128 μg/mL) was 1.50 ± 0.70, the oxidative damage ([1]; 3.6 mg/mL) was 2.50 ± 0.70 and the oxidative damage ([1]; 256 mg/mL) was 1.00 ± 1.41. For the same compound, the oxidative damage ([1]; 500 mg/mL) was 2.50 ± 0.70, the oxidative damage ([2]; 0.9 μg/mL) was 2.50 ± 0.70 and the oxidative damage ([2]; 1.8 μg/mL) was 3.00 ± 0.00. For the same compound, the oxidative damage ([2]; 7.2 μg/mL) was 3.00 ± 1.41, the oxidative damage ([2]; 14.4 μg/mL) was 2.00 ± 2.82 and the oxidative damage ([2]; 32 μg/mL) was 3.50 ± 0.70. It also gave an oxidative damage ([2]; 64 μg/mL) of 3.00 ± 1.41, an oxidative damage ([2]; 128 μg/mL) of 4.00 ± 1.41 and an oxidative damage ([2]; 256 μg/mL) of 3.00 ± 0.00. For the same compound, the oxidative damage ([2]; 3.6 mg/mL) was 4.00 ± 1.41, the oxidative damage ([2]; 500 mg/mL) was 3.50 ± 0.70 and the “cytotoxic effects in the hemolysis test” value (mouse erythrocytes) was “did not exhibit significant cytotoxic effects”. For the same compound, the hemolysis at 2 h, 31.25 μg/mL ([3]; mouse erythrocyte suspension, pH 7.4, 31.25 μg/mL) was 3.66 ± 0.64%, the hemolysis at 2 h, 62.5 μg/mL ([3]; mouse erythrocyte suspension, pH 7.4, 62.5 μg/mL) was 4.53 ± 0.06% and the hemolysis at 2 h, 250 μg/mL ([3]; mouse erythrocyte suspension, pH 7.4, 250 μg/mL) was 5.64 ± 0.74%. For the same compound, the hemolysis at 2 h, 500 μg/mL ([3]; mouse erythrocyte suspension, pH 7.4, 500 μg/mL) was 5.66 ± 0.56%, the hemolysis at 2 h, 125 μg/mL ([3]; pH 7.4, 125 μg/mL) was 5.33 ± 0.75% and the oxidative damage ([4]; 0.9 μg/mL) was 1.50 ± 0.70. The oxidative damage ([4]; 1.8 μg/mL) was 1.50 ± 0.70, the oxidative damage ([4]; 7.2 μg/mL) was 2.50 ± 0.70 and the oxidative damage ([4]; 14.4 μg/mL) was 2.00 ± 1.41. The oxidative damage ([4]; 32 μg/mL) was 2.00 ± 0.00, the oxidative damage ([4]; 64 μg/mL) was 1.50 ± 0.70 and the oxidative damage ([4]; 128 μg/mL) was 1.00 ± 1.41. The oxidative damage ([4]; 3.6 mg/mL) was 2.00 ± 0.00, the oxidative damage ([4]; 256 mg/mL) was 0.50 ± 0.70 and the oxidative damage ([4]; 500 mg/mL) was 2.50 ± 0.70. For the same compound, the “percentage modulation of oxidative damage caused by the stressor H2O2” value ([5]; all strains and concentrations tested) was “more than 60%”, the “induction of oxidative damage” value ([5]; any concentration, any of the tested S. cerevisiae strains) was “did not induce oxidative damage” and the oxidative damage ([6]; 0.9 μg/mL) was 0.50 ± 0.70. The oxidative damage ([6]; 1.8 μg/mL) was 0.00 ± 0.00, the oxidative damage ([6]; 7.2 μg/mL) was 1.00 ± 0.00 and the oxidative damage ([6]; 14.4 μg/mL) was 1.00 ± 1.41. It also gave an oxidative damage ([6]; 32 μg/mL) of 2.50 ± 0.70, an oxidative damage ([6]; 64 μg/mL) of 3.00 ± 0.00 and an oxidative damage ([6]; 128 μg/mL) of 1.50 ± 0.70. The oxidative damage ([6]; 3.6 mg/mL) was 1.50 ± 0.70, the oxidative damage ([6]; 256 mg/mL) was 2.50 ± 0.70 and the oxidative damage ([6]; 500 mg/mL) was 3.00 ± 0.00. It also gave an oxidative damage ([7]; 0.9 μg/mL) of 2.50 ± 0.70, an oxidative damage ([7]; 1.8 μg/mL) of 3.50 ± 0.70 and an oxidative damage ([7]; 7.2 μg/mL) of 4.00 ± 0.00. For the same compound, the oxidative damage ([7]; 14.4 μg/mL) was 3.50 ± 0.70, the oxidative damage ([7]; 32 μg/mL) was 3.50 ± 2.12 and the oxidative damage ([7]; 64 μg/mL) was 3.50 ± 0.70. The oxidative damage ([7]; 128 μg/mL) was 3.50 ± 2.12, the oxidative damage ([7]; 3.6 mg/mL) was 2.50 ± 0.70 and the oxidative damage ([7]; 256 mg/mL) was 2.50 ± 2.12. The oxidative damage ([7]; 500 mg/mL) was 3.00 ± 1.41, the oxidative damage ([8]; 0.9 μg/mL) was 1.50 ± 0.70 and the oxidative damage ([8]; 1.8 μg/mL) was 1.00 ± 1.41. The oxidative damage ([8]; 7.2 μg/mL) was 2.50 ± 0.70, the oxidative damage ([8]; 14.4 μg/mL) was 2.00 ± 0.00 and the oxidative damage ([8]; 32 μg/mL) was 2.50 ± 0.70. For the same compound, the oxidative damage ([8]; 64 μg/mL) was 3.50 ± 0.70, the oxidative damage ([8]; 128 μg/mL) was 3.50 ± 0.70 and the oxidative damage ([8]; 3.6 mg/mL) was 2.00 ± 1.41. For the same compound, the oxidative damage ([8]; 256 mg/mL) was 3.00 ± 1.41, the oxidative damage ([8]; 500 mg/mL) was 2.50 ± 0.70 and the “cytotoxic effects in the A. Salina test” value (Artemia salina; 31.25–500 μg/mL) was “did not exhibit significant cytotoxic effects”. The “concentration from which toxicity increased in a dose-dependent manner” value (Artemia salina; 48 h of exposure) was 125 µg/mL.

With `OO` [H2O2, hydrogen peroxide, reference compound] the oxidative damage ([1]; 10 mM, positive control) was 25.25 ± 6.18^∗∗, the oxidative damage ([2]; 10 mM, positive control) was 22.25 ± 4.57^∗∗ and the oxidative damage ([4]; 10 mM, positive control) was 30.75 ± 5.0^∗∗. For the same compound, the oxidative damage ([6]; 10 mM, positive control) was 25.5 ± 4.2^∗∗, the oxidative damage ([7]; 10 mM, positive control) was 24.25 ± 4.03^∗∗ and the oxidative damage ([8]; 10 mM, positive control) was 27.00 ± 5.09^∗∗.
